# “Also recorded” adds a separate entry of the source. Like-named read-outs stand apart in the source and are kept apart here. Numbered stars: 1 amine (or outer) side, 2 acyl side, 3 side chain; on linkers, the order of the positions; unused ones are H or OH. Square brackets hold non-standard residues; d marks the D form. Ends that are not written are not given here. Peptide text beside a SMILES is read from it. X2 = O=C([C@H](Cc1c(Sc2ccccc2[N+](=O)[O-])[nH]c2ccccc12)N[*:1])[*:2]
# What was measured:
# [1] = system: human foreskin fibroblasts; experiment: Ligand stimulated [3H]thymidine incorporation; format: cell-based; settings: for [3H]thymidine incorporation, ligand alone: no peptide (unstimulated control 483 cpm); for [3H]thymidine incorporation, ligand alone / [3H]thymidine incorporation, Control / [3H]thymidine incorporation, EGF / [3H]thymidine incorporation, PDGF-AA / [3H]thymidine incorporation, PDGF-BB: mean of duplicates; for Effect on ligand stimulated [3H]thymidine incorporation (in words): PDGF-AA, PDGF-BB or EGF stimulation; for [3H]thymidine incorporation, Control / [3H]thymidine incorporation, EGF / [3H]thymidine incorporation, PDGF-AA / [3H]thymidine incorporation, PDGF-BB: peptide present; for [3H]thymidine incorporation, Control: no ligand; for [3H]thymidine incorporation, EGF: stimulated with EGF; for [3H]thymidine incorporation, PDGF-AA: stimulated with PDGF-AA; for [3H]thymidine incorporation, PDGF-BB: stimulated with PDGF-BB
# Text: The possible role of peptide 16T as an antagonist for PDGF activity in vivo was investigated. Following the methodology of Betsholtz et al., J. Cell Physiol 118: 203-210 (1984), the disclosure of which is incorporated by reference, [^3 H] thymidine incorporation by human fibroblasts in the presence of various peptides was studied.
# PDGF-β receptor [2] = biological target: T1, PDGF-β receptor (Homo sapiens, UniProt P09619); experiment: Competition with 125I-PDGF-BB for binding to AG1518 fibroblasts (α receptor down regulated by PDGF-AA preincubation)
# T1 construct: cultures of human foreskin fibroblast cell line AG1518; endogenous in cells; host or cells: AG1518 human foreskin fibroblasts (Human Mutant Cell Repository)
# T1 sequence (P09619 33-1106): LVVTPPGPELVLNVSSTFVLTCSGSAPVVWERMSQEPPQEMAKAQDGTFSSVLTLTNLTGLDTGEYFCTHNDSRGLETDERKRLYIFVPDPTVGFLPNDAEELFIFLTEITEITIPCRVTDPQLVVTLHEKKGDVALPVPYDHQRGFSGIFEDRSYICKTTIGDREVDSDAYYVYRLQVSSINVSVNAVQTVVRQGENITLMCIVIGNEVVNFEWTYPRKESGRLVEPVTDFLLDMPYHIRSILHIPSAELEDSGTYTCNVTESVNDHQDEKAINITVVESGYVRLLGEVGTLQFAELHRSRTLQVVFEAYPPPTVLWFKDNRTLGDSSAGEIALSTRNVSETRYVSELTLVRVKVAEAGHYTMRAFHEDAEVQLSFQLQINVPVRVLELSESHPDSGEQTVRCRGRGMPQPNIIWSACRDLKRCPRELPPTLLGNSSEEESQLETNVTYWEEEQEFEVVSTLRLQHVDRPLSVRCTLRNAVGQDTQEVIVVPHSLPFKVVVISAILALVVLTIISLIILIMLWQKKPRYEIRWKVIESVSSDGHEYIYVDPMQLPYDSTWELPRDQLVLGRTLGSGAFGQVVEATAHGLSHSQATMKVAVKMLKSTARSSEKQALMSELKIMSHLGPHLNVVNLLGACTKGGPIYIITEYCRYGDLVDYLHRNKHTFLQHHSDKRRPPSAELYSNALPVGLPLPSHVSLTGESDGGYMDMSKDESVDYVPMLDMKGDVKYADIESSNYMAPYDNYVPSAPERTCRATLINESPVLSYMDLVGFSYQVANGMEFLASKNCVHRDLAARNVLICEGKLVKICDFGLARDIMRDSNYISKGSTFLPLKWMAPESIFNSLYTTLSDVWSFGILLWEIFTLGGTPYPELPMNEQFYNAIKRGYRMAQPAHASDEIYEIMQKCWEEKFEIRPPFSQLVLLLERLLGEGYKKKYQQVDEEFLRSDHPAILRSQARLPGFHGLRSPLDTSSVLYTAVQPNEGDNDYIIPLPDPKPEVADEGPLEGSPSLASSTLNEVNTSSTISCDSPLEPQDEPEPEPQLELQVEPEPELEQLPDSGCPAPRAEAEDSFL
# Procedure: (§1) In order to test for receptor binding, cultures of human foreskin fibroblast cell line AG1518 (obtained from the Human Mutant Cell Repository), were grown to confluence in Ham's F-12 medium containing 10% newborn calf serum. Those cells which were to be used in analysis of PDGF-β receptor binding were preincubated for 60 minutes at 37° C. in 0.5 ml/well of Ham's F-12 medium, supplemented with 1 mg/ml of bovine serum albumin (BSA), and 50 ng/ml of PDGF-AA. This combination down regulates PDGF-α receptor, as per Claesson-Welsh et al., J. Biol. Chem. 264: 1742-1747 (1989).
# (§2) Cells were prepared for receptor binding analyses by washing with ice cold binding buffer (phosphate buffered saline with 0.9 mM CaCl2, 0.49 mM MgSO4 and 1 mg/ml BSA). The cells were then incubated on ice for 90 minutes with different concentrations (0-100 ug/ml) of synthetic peptides (listed in Table 1, infra), in 0.5 ml of binding buffer per well. […] The labelled ligand was added and then incubated for 60 minutes at 0° C. after which the cells were washed five times with ice cold binding buffer. The washed cells were then lysed for 60 minutes at room temperature in a lysis buffer (1% Triton X-100, 10% glycerol, 20 mM Tris-HCl, pH 7.5). Solubilized radioactivity was determined in a gamma counter. Competing activities of synthetic peptides were compared to standard curves, using unlabelled ligand.
# In Table 2, "+++" means <30 μM; "++" from 30-60 μM; "+" 60-150 μM; and "-", >150 μM.
# PDGF-α receptor = biological target: T2, PDGF-α receptor (Homo sapiens, UniProt P16234); experiment: Competition with 125I-PDGF-AA for binding to AG1518 fibroblasts; settings: for Receptor competing activity, PDGF-AA binding (in words): AG1518 cells
# T2 construct: cultures of human foreskin fibroblast cell line AG1518; endogenous in cells; host or cells: AG1518 human foreskin fibroblasts
# T2 sequence (P16234 24-1089): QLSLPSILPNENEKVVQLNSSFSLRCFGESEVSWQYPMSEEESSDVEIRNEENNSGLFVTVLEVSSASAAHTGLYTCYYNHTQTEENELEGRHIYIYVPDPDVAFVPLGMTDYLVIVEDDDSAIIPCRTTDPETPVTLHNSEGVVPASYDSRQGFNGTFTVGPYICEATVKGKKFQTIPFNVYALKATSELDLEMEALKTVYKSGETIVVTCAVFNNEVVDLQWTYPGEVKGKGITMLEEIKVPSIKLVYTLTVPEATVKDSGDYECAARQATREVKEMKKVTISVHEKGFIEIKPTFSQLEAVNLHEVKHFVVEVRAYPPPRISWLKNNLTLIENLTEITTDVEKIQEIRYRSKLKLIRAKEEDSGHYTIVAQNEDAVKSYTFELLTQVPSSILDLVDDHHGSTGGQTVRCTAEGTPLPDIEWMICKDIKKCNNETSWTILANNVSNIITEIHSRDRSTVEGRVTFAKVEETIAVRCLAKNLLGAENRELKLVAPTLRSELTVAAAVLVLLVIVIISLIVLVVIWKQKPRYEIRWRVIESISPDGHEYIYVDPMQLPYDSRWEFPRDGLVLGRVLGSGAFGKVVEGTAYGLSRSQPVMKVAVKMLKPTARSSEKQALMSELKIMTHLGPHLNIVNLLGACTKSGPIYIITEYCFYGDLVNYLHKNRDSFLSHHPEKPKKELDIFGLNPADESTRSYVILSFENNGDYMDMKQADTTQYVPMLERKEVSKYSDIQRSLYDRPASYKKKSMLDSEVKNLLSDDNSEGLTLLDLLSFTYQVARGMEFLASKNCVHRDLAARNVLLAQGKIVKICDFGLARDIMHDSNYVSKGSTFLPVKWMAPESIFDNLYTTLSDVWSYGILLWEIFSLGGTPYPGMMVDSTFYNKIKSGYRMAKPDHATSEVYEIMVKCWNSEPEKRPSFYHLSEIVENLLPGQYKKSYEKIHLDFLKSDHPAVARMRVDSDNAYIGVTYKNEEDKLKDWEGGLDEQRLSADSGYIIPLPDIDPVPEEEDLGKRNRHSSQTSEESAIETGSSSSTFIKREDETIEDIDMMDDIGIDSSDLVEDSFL
# Procedure: as §1, §2
# EGF receptor [3] = biological target: T3, EGF receptor (Homo sapiens, UniProt P00533); experiment: Competition with 125I-EGF for binding to AG1518 fibroblasts
# T3 construct: cultures of human foreskin fibroblast cell line AG1518; endogenous in cells; host or cells: human foreskin fibroblasts (AG1518)
# T3 sequence (P00533 25-1210): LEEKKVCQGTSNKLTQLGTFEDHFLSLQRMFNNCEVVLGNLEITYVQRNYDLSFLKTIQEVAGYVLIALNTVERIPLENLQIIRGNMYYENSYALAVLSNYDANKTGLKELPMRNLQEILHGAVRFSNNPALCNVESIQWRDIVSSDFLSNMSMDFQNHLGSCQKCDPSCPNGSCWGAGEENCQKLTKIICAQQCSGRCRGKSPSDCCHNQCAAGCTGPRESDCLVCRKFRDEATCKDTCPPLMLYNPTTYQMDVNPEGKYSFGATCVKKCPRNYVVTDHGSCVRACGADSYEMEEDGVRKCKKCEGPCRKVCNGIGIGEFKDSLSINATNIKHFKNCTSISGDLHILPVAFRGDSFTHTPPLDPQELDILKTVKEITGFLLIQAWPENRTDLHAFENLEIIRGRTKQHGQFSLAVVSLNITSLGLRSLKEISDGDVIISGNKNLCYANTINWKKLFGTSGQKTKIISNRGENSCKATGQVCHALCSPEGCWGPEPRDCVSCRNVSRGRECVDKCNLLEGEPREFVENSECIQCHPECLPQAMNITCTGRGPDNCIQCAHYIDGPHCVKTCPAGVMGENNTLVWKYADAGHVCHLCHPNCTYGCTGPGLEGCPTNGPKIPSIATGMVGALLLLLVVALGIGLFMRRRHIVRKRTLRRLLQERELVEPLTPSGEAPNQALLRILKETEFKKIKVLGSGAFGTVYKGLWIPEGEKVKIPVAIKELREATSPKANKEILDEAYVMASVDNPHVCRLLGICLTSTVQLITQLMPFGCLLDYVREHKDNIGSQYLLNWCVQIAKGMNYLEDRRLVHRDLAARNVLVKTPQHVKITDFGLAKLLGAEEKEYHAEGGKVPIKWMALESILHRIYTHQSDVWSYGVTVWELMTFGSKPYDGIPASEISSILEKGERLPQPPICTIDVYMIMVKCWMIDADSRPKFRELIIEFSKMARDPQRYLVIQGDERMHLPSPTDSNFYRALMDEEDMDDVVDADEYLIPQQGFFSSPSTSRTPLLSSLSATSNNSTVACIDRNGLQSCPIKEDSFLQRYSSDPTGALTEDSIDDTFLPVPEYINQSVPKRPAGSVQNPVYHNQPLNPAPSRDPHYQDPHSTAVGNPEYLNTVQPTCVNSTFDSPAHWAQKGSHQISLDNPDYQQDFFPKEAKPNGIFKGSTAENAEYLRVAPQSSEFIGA
# Procedure: as §1, §2
# PDGF-β receptor [4] = biological target: T4, PDGF-β receptor (Sus scrofa, UniProt A0A8W4FFG6); experiment: Autophosphorylation and dimerization of partially purified PDGF-β receptor; format: biochemical, porcine
# T4 construct: from Triton X-100 solubilized porcine uterus membranes and purified up to the Mono-Q chromatography step; from tissue; host or cells: porcine uterus membranes
# T4 sequence (A0A8W4FFG6 32-1102): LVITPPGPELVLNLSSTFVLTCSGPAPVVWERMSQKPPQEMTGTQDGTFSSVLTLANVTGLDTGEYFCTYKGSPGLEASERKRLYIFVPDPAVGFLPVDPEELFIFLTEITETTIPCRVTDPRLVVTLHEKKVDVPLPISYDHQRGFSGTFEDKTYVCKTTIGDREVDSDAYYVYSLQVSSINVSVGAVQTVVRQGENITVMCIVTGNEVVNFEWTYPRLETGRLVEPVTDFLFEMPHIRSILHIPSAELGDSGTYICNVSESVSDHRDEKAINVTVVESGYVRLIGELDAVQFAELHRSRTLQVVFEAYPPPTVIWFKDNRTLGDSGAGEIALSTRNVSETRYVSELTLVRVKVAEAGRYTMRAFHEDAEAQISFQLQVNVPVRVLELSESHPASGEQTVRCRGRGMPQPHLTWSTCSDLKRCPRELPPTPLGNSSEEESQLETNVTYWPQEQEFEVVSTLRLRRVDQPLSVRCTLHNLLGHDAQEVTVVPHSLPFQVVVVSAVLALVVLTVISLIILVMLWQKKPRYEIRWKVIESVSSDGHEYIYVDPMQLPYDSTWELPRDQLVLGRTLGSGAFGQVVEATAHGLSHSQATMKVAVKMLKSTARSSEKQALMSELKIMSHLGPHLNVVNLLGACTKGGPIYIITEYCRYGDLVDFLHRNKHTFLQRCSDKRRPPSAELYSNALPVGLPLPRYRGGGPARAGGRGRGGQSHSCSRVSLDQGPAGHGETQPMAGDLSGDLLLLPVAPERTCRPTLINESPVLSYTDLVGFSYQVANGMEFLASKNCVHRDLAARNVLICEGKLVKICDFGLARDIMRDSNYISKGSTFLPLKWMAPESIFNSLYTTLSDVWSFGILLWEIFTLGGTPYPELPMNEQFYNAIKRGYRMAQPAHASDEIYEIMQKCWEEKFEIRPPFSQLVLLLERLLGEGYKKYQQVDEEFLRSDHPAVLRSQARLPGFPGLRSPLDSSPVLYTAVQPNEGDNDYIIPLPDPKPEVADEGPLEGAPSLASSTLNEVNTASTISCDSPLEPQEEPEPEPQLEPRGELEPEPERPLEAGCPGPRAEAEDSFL
# Procedure: A preparation of PDGF-β receptor, from Triton X-100 solubilized porcine uterus membranes and purified up to the Mono-Q chromatography step of Ronnstrand et al., J. Biol. Chem. 262: 2929-2932 (1987), was made, and the autophosphorylation assay described therein was carried out.
# Approximately 100 ng of the receptor was incubated for 5 minutes at 0° C. with peptide 16T or peptide 20, at different concentrations. […] Four ul of 150 μM [^32 P]ATP (containing 5×10^6 cpm of radioactivity) was added, followed by an additional 10 minutes of incubation at 0° C. Incorporation of radioactivity was terminated by adding 5 μl of 15 mM unlabelled ATP and 5 μl of 40 mM phenylphosphate. Samples were cross linked by incubating with 0.5 mM DSS (12.5 mM, in dimethyl sulfoxide) for 30 minutes at room temperature. The cross linking reaction was blocked by adding 50 mM methylammonium chloride, 20 mM Hepes, pH 7.4.
# PDGF receptors = experiment: PDGF-BB induced receptor dimerization and autophosphorylation in intact cells; format: cell-based, human; settings: PDGF-BB 300 ng/ml, intact fibroblasts
# Procedure: (§3) Confluent human foreskin fibroblast cells were used (25 cm^2 dishes of cultures). The cells were washed twice with binding buffer, as described supra, with 1 mg/ml BSA added thereto. This was followed by 90 minutes of incubation with one of synthetic peptides 16, […], 20 and […] on ice. […] A dimerization assay was then carried out, basically following Eriksson et al., Growth Factors 6: 1-14 (1992). Essentially, receptors were cross linked for 20 minutes at room temperature in 1 mM BS^3 (Bis(sulfosuccinimidyl)suberate) in lysis buffer (0.5% Triton X-100, 0.5% deoxycholate, […], pH 7.4, 150 mM NaCl, 10 mM EDTA, 1 mM PMSF (phenylmethylsulfonyl fluoride), 1% Trasylol (aprotinin), 100 μM ortovandat, a phosphatase inhibitor). Cross linking was quenched by adding 70 mM methylammonium chloride for 10 minutes. Samples were then subjected to SDS gel electrophoresis in 4% slab gels, followed by electroblotting on to nitrocellulose membranes. The blocked membranes were incubated for two hours with affinity purified phosphotyrosine antibodies (Ek et al., J. Biol. Chem. 259: 1145-11152 (1984)), followed by three washes. Blots were then incubated for 45 minutes with peroxidase conjugated, affinity purified swine antirabbit IgG immunoglobulin. After an additional three washes, complexes were visualized using the ECL developing system.
# EGF receptor [5] = biological target: T3, EGF receptor; experiment: EGF induced receptor dimerization and autophosphorylation in intact cells; format: cell-based; settings: EGF 300 ng/ml, intact fibroblasts
# Procedure: as §3
# [6] = AG1518 cells, competing activity
# [7] = read-out: Inhibitory Activity: ability to compete with PDGF-BB for binding (peptide needed to decrease binding by 50%), AG1518 cells, 0° C., asterisk = homogeneous peptide, otherwise crude
# [8] = AG1518 cells, 0° C., asterisk = homogeneous peptide, otherwise crude
molecule,measurement,setting,value
"EGF: ligand of the EGF receptor, used as control growth factor","[3H]thymidine incorporation, ligand alone",[1],2591 cpm
WPPCVEVQLRPVQVRKIEIVRKKP [Peptide 8],"Receptor competing activity, PDGF-BB binding (in words)",PDGF-β receptor [2]; [6],nearly devoid of activity
same,IC50,PDGF-β receptor [2]; [7],> 150 µM
CC[C@H](C)[C@H](NC(=O)[C@H](CCC(=O)O)NC(=O)[C@H](Cc1c(Sc2ccccc2[N+](=O)[O-])[nH]c2ccccc12)NC(=O)[C@@H](NC(=O)[C@H](CC(C)C)NC(=O)[C@H](Cc1ccccc1)NC(=O)[C@H](CC(N)=O)NC(=O)[C@H](C)N)C(C)C)C(=O)N[C@H](C(=O)N[C@@H](CCCNC(=N)N)C(=O)N[C@@H](CCCCN)C(=O)N[C@@H](CCCCN)C(=O)N1CCC[C@H]1C(=O)O)C(C)C [*16NPS] (H-ANFLV[X2]EIVRKKP-OH; N-terminus and C-terminus assumed),IC50,PDGF-β receptor [2]; [8],< 30 µM
same,"Receptor competing activity, PDGF-BB binding (in words)","PDGF-β receptor [2]; AG1518 cells, general text statements on competing activity placed here, listed as 16 NPS",more active as an antagonist than peptide 16
same,"Receptor competing activity, PDGF-BB binding (in words)","PDGF-β receptor [2]; AG1518 cells, general text statements on competing activity placed here, listed as 16NPS",increased activity as an antagonist
"EAFIKWLVRNKVP [*20, reference compound]",IC50,PDGF-β receptor [2]; [8],> 150 µM
PDGF-AA: platelet derived growth factor A chain homodimer,"[3H]thymidine incorporation, ligand alone",[1],677 cpm
same,Stimulation of [3H]thymidine incorporation by ligand,"[1]; no peptide, versus unstimulated control",lower stimulation
CRPTQVQLRPVQVRKIEIVRKKP [Peptide 2],IC50,PDGF-β receptor [2]; [7],> 150 µM
ANFLVWEIVRKKP [Peptide 16],IC50,PDGF-β receptor [2]; [8],< 30 µM
same,"Receptor competing activity, PDGF-BB binding (in words)",PDGF-β receptor [2]; [6],maintained most of the receptor competing activity; also recorded: marginal effect
same,"Receptor competing activity, PDGF-AA binding (in words)",PDGF-α receptor,marginal effect
same,"Receptor competing activity, PDGF-AA binding (in words)",PDGF-α receptor; listed as 16*,very low activity
same,Competition for binding of 125I-EGF to the EGF receptor (in words),EGF receptor [3],"none of peptides 16, 16T, 20 and 20T compete"
same,Effect on ligand stimulated [3H]thymidine incorporation (in words),[1],"did inhibit PDGF-AA and PDGF-BB induced mitogenicity, but also EGF induced mitogenicity"
same,"[3H]thymidine incorporation, Control",[1],241 cpm
same,"[3H]thymidine incorporation, EGF",[1],216 cpm
same,"[3H]thymidine incorporation, PDGF-AA",[1],242 cpm
same,"[3H]thymidine incorporation, PDGF-BB",[1],281 cpm
same,Amount of peptide giving complete inhibition of dimerization and autophosphorylation,"PDGF-β receptor [4]; nearly complete for 16T, complete for 16, about 100 ng receptor, 100 ng PDGF-BB, 40 ul",20 µg
same,Effect on dimerization and autophosphorylation (in words),PDGF-β receptor [4]; peptide 20: concentrations up to 20 μg,intermediate effect
KIEIVRKKPIFKKATVTLEDHLASKC [Peptide 1],IC50,PDGF-β receptor [2]; [7],> 150 µM
"CC[C@H](C)[C@H](NC(=O)[C@H](Cc1ccccc1)NC(=O)[C@H](C)NC(=O)[C@@H](N)CCC(=O)O)C(=O)N[C@@H](CCCCN)C(=O)N[C@@H](Cc1c(-c2ccc(SC)cc2)[nH]c2ccccc12)C(=O)N[C@@H](CC(C)C)C(=O)N[C@H](C(=O)N[C@@H](CCCNC(=N)N)C(=O)N[C@@H](CC(N)=O)C(=O)N[C@@H](CCCCN)C(=O)N[C@H](C(=O)N1CCC[C@H]1C(=O)O)C(C)C)C(C)C [*20T, reference compound]","Receptor competing activity, PDGF-BB binding (in words)",PDGF-β receptor [2]; [6],did not compete for binding
same,"Receptor competing activity, PDGF-AA binding (in words)",PDGF-α receptor,did not compete for binding
same,Competition for binding of 125I-EGF to the EGF receptor (in words),EGF receptor [3],"none of peptides 16, 16T, 20 and 20T compete"
same,Effect on ligand stimulated [3H]thymidine incorporation (in words),[1],some non specific inhibition activity
same,"[3H]thymidine incorporation, Control",[1],456 cpm
same,"[3H]thymidine incorporation, EGF",[1],515 cpm
same,"[3H]thymidine incorporation, PDGF-AA",[1],489 cpm
same,"[3H]thymidine incorporation, PDGF-BB",[1],836 cpm
same,Effect on PDGF induced autophosphorylation and dimerization (in words),PDGF receptors,no effect whatsoever
same,Effect on EGF induced autophosphorylation and dimerization (in words),EGF receptor [5],no effect whatsoever
ANFLVWPPCVEVQLRPVQVRKIEIVRKKP [Peptide 7],IC50,PDGF-β receptor [2]; [7],< 30 µM
same,IC50,"PDGF-β receptor [2]; β receptor, read-out: 50% competition for receptor binding",~6 µM
same,IC50,"PDGF-α receptor; α receptor, read-out: 50% competition for receptor binding",~6 µM

# From US5444151A, “Platelet derived growth factor antagonists” (Ludwig Institute for Cancer Research, priority 1992, dated 1995)
